Source: US20250268894A1, “MACROCYCLE COMPOUNDS FOR THE TREATMENT OF CANCER” (Hoffmann-La Roche Inc., priority 2022, published 2025)

Legend:
KRAS G12V-BRAF complex = KRAS G12V-BRAF complex (Homo sapiens (Human), UniProt P01116+P62937, G12V); test: KRAS-BRAF with CYPA (500 nM) interaction assay (TR-FRET), G12V; type: biochemical
Procedure: (§1) Kras-BRAF with CYPA (500 nM) Interaction Assay In this example, TR-FRET was also used to measure the compound or compound-CYPA dependent disruption of the KRAS G12C-BRAF complex. This protocol was also used to measure disruption of KRAS G12D or KRAS G12V binding to BRAF by a compound of the invention, respectively. […] Compound was present in plate wells as a 16-point 3-fold dilution series starting at a final concentration of 10 μM and incubated for 3 hours. […] TR-FRET signal was read on a […] microplate reader (Ex320 nm, Em 665/615 nm). Compounds that facilitate disruption of the KRAS-BRAF complex were identified as those eliciting a decrease in the TR-FRET ratio relative to DMSO control wells.

KRAS G12D-BRAF complex = KRAS G12D-BRAF complex (Homo sapiens (Human), UniProt P01116+P62937, G12D); test: KRAS-BRAF with CYPA (500 nM) interaction assay (TR-FRET), G12D; type: biochemical
Sequence of KRAS G12D-BRAF complex (P01116-2 other isoform, or with tags, fused parts or gaps G12D): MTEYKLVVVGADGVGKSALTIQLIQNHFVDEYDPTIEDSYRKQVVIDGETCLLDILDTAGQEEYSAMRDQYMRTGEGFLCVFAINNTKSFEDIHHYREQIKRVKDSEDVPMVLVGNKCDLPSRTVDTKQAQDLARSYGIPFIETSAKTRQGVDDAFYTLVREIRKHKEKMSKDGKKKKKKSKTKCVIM
Sequence of KRAS G12D-BRAF complex (P62937 whole entry): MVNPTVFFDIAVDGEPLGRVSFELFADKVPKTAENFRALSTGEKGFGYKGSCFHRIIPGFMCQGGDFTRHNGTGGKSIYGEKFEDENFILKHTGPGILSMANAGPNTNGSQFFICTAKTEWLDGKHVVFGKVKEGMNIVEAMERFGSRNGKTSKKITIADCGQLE
Procedure: as §1

KRAS G12C-BRAF complex = KRAS G12C-BRAF complex (Homo sapiens (Human), UniProt P01116+P62937, G12C); test: KRAS-BRAF with CYPA (500 nM) interaction assay (TR-FRET), G12C; type: biochemical
Sequence of KRAS G12C-BRAF complex (P01116-2 other isoform, or with tags, fused parts or gaps G12C): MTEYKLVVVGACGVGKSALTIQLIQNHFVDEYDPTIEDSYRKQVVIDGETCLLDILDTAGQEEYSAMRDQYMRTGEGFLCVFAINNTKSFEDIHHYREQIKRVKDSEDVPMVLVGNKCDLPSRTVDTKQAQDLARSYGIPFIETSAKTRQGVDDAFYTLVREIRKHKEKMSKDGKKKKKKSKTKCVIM
Sequence of KRAS G12C-BRAF complex (P62937 whole entry): as the sequence (P62937 whole entry) above
Procedure: as §1

[1] = tested on: phosphorylation of ERK, KRAS G12D in AGS cells; test: pERK inhibition assay, KRAS G12D in AGS cells; type: cell-based, human; settings: 4 hours
Procedure: (§2) This assay is to measure the ability of test compounds in inhibiting the phosphorylation of ERK, the downstream signaling of KRAS G12C in NCI-H358 cells, KRAS G12D in AGS cells, and KRAS G12V in SW620. NCI-H358 (ATCC-CRL5807) cells, AGS (ATCC-CRL-1739) cells, SW620 (ATCC-CCL-227) cells were all grown and maintained using RPMI-1640 medium (Thermo Fisher Scientific) with 10% fetal bovine serum and 1% penicillin/streptomycin. On the day prior to compound addition, cells were plated in tissue culture-treated 96 well plates (Corning-3699) at a density of 30,000 cell/well, 20,000 cell/well, 30,000 cell/well for NCI-H358, AGS and SW620 respectively, and allowed for attachment overnight. Diluted compounds were then added in a final concentration of 0.5% DMSO. After 4 hours of incubation, the medium was removed, 100 μL of 4% formaldehyde was added, and the assay plates were incubated at room temperature for 20 minutes. The plates were then washed once with phosphate buffered saline (PBS), and permeabilized with 100 μL of chilled methanol for 10 minutes. Non-specific antibody binding to the plates was blocked using 50 μL 1X BSA blocking buffer (Thermo-37520, 10-fold dilution by Phosphate-Buffered Saline Tween (PBST) for at least 1 hour at room temperature.
(§3) The amount of phosphor-ERK was determined using an antibody specific for phosphorylated form of ERK. Primary antibody (PERK, CST-4370, Cell Signaling Technology) was diluted 1:300 in blocking buffer, with 50 μL aliquoted to each well, and incubated overnight at 4° C. Cells was washed five times for 5 minutes with PBST. Secondary antibody (HRP-linked anti-rabbit IgG, CST-7074, Cell Signaling Technology) was diluted 1:1000 in blocking buffer, and 50 μL was added to each well and incubated 1-2 hrs at room temperature. Cells was washed […] for 5 minutes with PBST, 100 μL TMB ELISA substrate (abcam-ab171523) were added and gently shake for 20 minutes. 50 μL stop solution (abcam-ab171529) were added, and then read the signal (OD450) by EnVision.
(§4) IC50 was determined by fitting a 4-parameter sigmoidal concentration response model.

AGS cells (KRAS G12D) = test: Cell viability assay (Cell Counting Kit-8), KRAS G12D; type: cell-based; settings: Homo sapiens, 72 hrs
Procedure: (§5) The purpose of this cellular assay was to determine the effects of test compounds on the proliferation of human cancer cell lines NCI-H358 (ATCC-CRL5807) cells, AGS (ATCC-CRL-1739) cells, SW620 (ATCC-CCL-227) over a 3-day treatment period by quantifying the amount of NADPH present at endpoint using Cell Counting Kit-8.
(§6) Cells were seeded at 5,000 cells/well (NCI-H358), 2,000 cells/well (AGS)2,000 cells/well (SW620) in 96-well assay plates (Corning-3699) and incubated overnight. On the day of the assay, diluted compounds were then added in a final concentration of 0.5% DMSO. After 72 hrs incubation, a tenth of the volume of cell counting kit 8 (Dnjindo-CK04) was added into each well. Read the signal (OD450 minus OD650) using EnVision after 2 hrs incubation. IC50 was determined by fitting a 4-parameter sigmoidal concentration response model.

[2] = tested on: NCI-H358 cells (KRAS G12C); test: Cell viability assay (Cell Counting Kit-8), KRAS G12C; type: cell-based; settings: Homo sapiens, NCI-H358, 72 hrs
Procedure: as §5, §6

[3] = tested on: phosphorylation of ERK, KRAS G12C in NCI-H358 cells; test: pERK inhibition assay, KRAS G12C in NCI-H358 cells; type: cell-based, human; settings: NCI-H358, 4 hours
Procedure: as §2, §3, §4

[4] = tested on: phosphorylation of ERK, KRAS G12V in SW620 cells; test: pERK inhibition assay, KRAS G12V in SW620; type: cell-based, human
Procedure: as §2, §3, §4

SW620 cells (KRAS G12V) = test: Cell viability assay (Cell Counting Kit-8), KRAS G12V; type: cell-based; settings: Homo sapiens, SW-620, SW620, 72 hrs
Procedure: as §5, §6

[5] = Homo sapiens, SW-620, SW620, 4 hours

Sequence of KRAS G12V-BRAF complex (P01116-2 other isoform, or with tags, fused parts or gaps G12V): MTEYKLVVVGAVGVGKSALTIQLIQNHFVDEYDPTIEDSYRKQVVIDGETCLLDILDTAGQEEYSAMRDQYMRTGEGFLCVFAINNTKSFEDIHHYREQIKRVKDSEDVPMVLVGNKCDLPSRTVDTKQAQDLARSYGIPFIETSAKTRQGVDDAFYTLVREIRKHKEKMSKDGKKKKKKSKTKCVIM
Sequence of KRAS G12V-BRAF complex (P62937 whole entry): as the sequence (P62937 whole entry) above

Row | SMILES | IC50 ([1]; Homo sapiens) [nM] | IC50 (AGS cells (KRAS G12D)) [nM] | IC50 [2] [nM] | IC50 ([3]; Homo sapiens) [nM] | IC50 [4, 5] [nM] | IC50 (SW620 cells (KRAS G12V)) [nM] | IC50 (KRAS G12V-BRAF complex) [nM] | IC50 (KRAS G12D-BRAF complex) [nM] | IC50 (KRAS G12C-BRAF complex) [nM] | IC50 [1] [nM] | IC50 [3] [nM] | IC50 ([4]; SW620, 4 hours) [nM]
1 | CCn1c(-c2cc(N3CCOCC3)cnc2[C@H](C)OC)c2c3cc(c(F)cc31)-c1csc(n1)C[C@H](NC(=O)[C@H](C(C)C)N(C)C(=O)N1CC(F)(F)C1)C(=O)N1CCC[C@H](N1)C(=O)OCC(C)(C)C2 (atropisomer, axis not shown; (M)) [Example 7, N-[(1S)-1-[[(7S,13S)-21-ethyl-24-fluoro-(20M)-20-[2-[(1S)-1-methoxyethyl]-5-morpholino-3-pyridyl]-17,17-dimethyl-8,14-dioxo-15-oxa-4-thia-9,21,27,28-tetrazapentacyclo[17.5.2.1^2,5.1^9,13.0^22,26]octacosa-1 (25),2,5 (28),19,22 (26),23-hexaen-7-yl]carbamoyl]-2-methyl-propyl]-3,3-difluoro-N-methyl-azetidine-1-carboxamide] |  |  |  |  |  |  | 611 | 472 | 95 |  |  | 
2 | CCn1c(-c2cc(N3CCOCC3)cnc2[C@H](C)OC)c2c3cc(c(F)cc31)-c1csc(n1)C[C@H](NC(=O)[C@H](C(C)C)N1CCN(C)C1=O)C(=O)N1CCC[C@H](N1)C(=O)OCC(C)(C)C2 (atropisomer, axis not shown; (M)) [Example 8, (2S)-N-[(7S,13S)-21-ethyl-24-fluoro-(20M)-20-[2-[(1S)-1-methoxyethyl]-5-morpholino-3-pyridyl]-17,17-dimethyl-8,14-dioxo-15-oxa-4-thia-9,21,27,28-tetrazapentacyclo[17.5.2.1^2,5.1^9,13.0^22,26]octacosa-1 (25),2,5 (28),19,22 (26),23-hexaen-7-yl]-3-methyl-2-(3-methyl-2-oxo-imidazolidin-1-yl) butanamide] | 24 | 57 | 12 | 24 | 5 | 7 |  |  |  |  |  | 
3 | COC(C)c1ncc(N2CCN(CC(F)(F)F)CC2)cc1-c1c2c3cc(c(F)cc3n1CC(F)(F)F)-c1csc(n1)CC(NC(=O)C(C(C)C)N(C)C(=O)N1CCN(CC(F)(F)F)CC1)C(=O)N1CCCC(N1)C(=O)OCC(C)(C)C2 [Example 19, N-[(1S)-1-[[(7S,13S)-24-fluoro-(20M)-20-[2-[(1S)-1-methoxyethyl]-5-[4-(2,2,2-trifluoroethyl)piperazin-1-yl]-3-pyridyl]-17,17-dimethyl-8,14-dioxo-21-(2,2,2-trifluoroethyl)-15-oxa-4-thia-9,21,27,28-tetrazapentacyclo[17.5.2.1^2,5.1^9,13.0^22,26]octacosa-1 (25),2,5 (28),19,22 (26),23-hexaen-7-yl]carbamoyl]-2-methyl-propyl]-N-methyl-4-(2,2,2-trifluoroethyl) piperazine-1-carboxamide] |  |  |  |  |  |  |  |  |  | 54 | 66 | 16
4 | COC(C)c1ncc(N2CCN(CC(F)(F)F)CC2)cc1-c1c2c3cc(c(F)cc3n1CC(F)(F)F)-c1csc(n1)CC(NC(=O)C(C(C)C)N(C)C(=O)N1CCN(C)CC1)C(=O)N1CCCC(N1)C(=O)OCC(C)(C)C2 [Example 18, N-[(1S)-1-[[(7S,13S)-24-fluoro-(20M)-20-[2-[(1S)-1-methoxyethyl]-5-[4-(2,2,2-trifluoroethyl)piperazin-1-yl]-3-pyridyl]-17,17-dimethyl-8,14-dioxo-21-(2,2,2-trifluoroethyl)-15-oxa-4-thia-9,21,27,28-tetrazapentacyclo[17.5.2.1^2,5.1^9,13.0^22,26]octacosa-1 (25),2,5 (28),19,22 (26),23-hexaen-7-yl]carbamoyl]-2-methyl-propyl]-N,4-dimethyl-piperazine-1-carboxamide] |  |  |  |  |  |  |  |  |  | 12 | 23 | 7
5 | CO[C@@H](C)c1ncc(N2CCN(C)CC2)cc1-c1c2c3cc(ccc3n1CC(F)(F)F)-c1csc(n1)C[C@H](NC(=O)[C@H](C(C)C)N(C)C(=O)N1CCOCC1)C(=O)N1CCC[C@H](N1)C(=O)OCC(C)(C)C2 (atropisomer, axis not shown; (M)) [Example 3, N-[(1S)-1-[[(7S,13S)-24-fluoro-(20M)-20-[2-[(1S)-1-methoxyethyl]-5-(4-methylpiperazin-1-yl)-3-pyridyl]-17,17-dimethyl-8,14-dioxo-21-(2,2,2-trifluoroethyl)-15-oxa-4-thia-9,21,27,28-tetrazapentacyclo[17.5.2.1^2,5.1^9,13.0^22,26]octacosa-1 (25),2,5 (28),19,22 (26),23-hexaen-7-yl]carbamoyl]-2-methyl-propyl]-N-methyl-morpholine-4-carboxamide] | 1 | 15 | 1 | 1 | 1 | 1 |  |  |  |  |  | 

Now from value to compound, other results behind:

Row | IC50 ([1]; Homo sapiens) [nM] | IC50 (AGS cells (KRAS G12D)) [nM] | IC50 [2] [nM] | IC50 ([3]; Homo sapiens) [nM] | IC50 [4, 5] [nM] | IC50 (SW620 cells (KRAS G12V)) [nM] | SMILES | IC50 (KRAS G12V-BRAF complex) [nM] | IC50 (KRAS G12D-BRAF complex) [nM] | IC50 (KRAS G12C-BRAF complex) [nM] | IC50 [1] [nM] | IC50 [3] [nM] | IC50 ([4]; SW620, 4 hours) [nM]
6 | 5 | 16 | 4 | 1 | 4 | 3 | CO[C@@H](C)c1ncc(N2CCN(C)CC2)cc1-c1c2c3c(F)c(ccc3n1CC(F)(F)F)-c1csc(n1)C[C@H](NC(=O)[C@H](C(C)C)N(C)C(=O)N1CC(N(C)C)C1)C(=O)N1CCC[C@H](N1)C(=O)OCC(C)(C)C2 (atropisomer, axis not shown; (M)) [Example 2, 3-(dimethylamino)-N-[(1S)-1-[[(7S,13S)-25-fluoro-(20M)-20-[2-[(1S)-1-methoxyethyl]-5-(4-methylpiperazin-1-yl)-3-pyridyl]-17,17-dimethyl-8,14-dioxo-21-(2,2,2-trifluoroethyl)-15-oxa-4-thia-9,21,27,28-tetrazapentacyclo[17.5.2.1^2,5.1^9,13.0^22,26]octacosa-1(25),2,5 (28),19,22 (26),23-hexaen-7-yl]carbamoyl]-2-methyl-propyl]-N-methyl-azetidine-1-carboxamide] |  |  |  |  |  | 
7 | 3 | 17 | 3 | 1 | 1 | 1 | CO[C@@H](C)c1ncc(N2CCOCC2)cc1-c1c2c3cc(c(F)cc3n1CC(F)(F)F)-c1csc(n1)C[C@H](NC(=O)[C@H](C(C)C)N(C)C(=O)N1CC(N(C)C)C1)C(=O)N1CCC[C@H](N1)C(=O)OCC(C)(C)C2 (atropisomer, axis not shown; (M)) [Example 4, 3-(dimethylamino)-N-[(1S)-1-[[(7S,13S)-24-fluoro-(20M)-20-[2-[(1S)-1-methoxyethyl]-5-morpholino-3-pyridyl]-17,17-dimethyl-8,14-dioxo-21-(2,2,2-trifluoroethyl)-15-oxa-4-thia-9,21,27,28-tetrazapentacyclo[17.5.2.1^2,5.1^9,13.0^22,26]octacosa-1 (25),2,5 (28),19,22 (26),23-hexaen-7-yl]carbamoyl]-2-methyl-propyl]-N-methyl-azetidine-1-carboxamide] |  |  |  |  |  | 
